# Measured values from paper PMC4117522, “Proteasome Inhibitors Alter Levels of Intracellular Peptides in HEK293T and SH-SY5Y Cells” (PLoS ONE, 2014).
# What was measured:
# [1] = molecular target: T1, 20S proteasome core particle (Saccharomyces cerevisiae, UniProt P23724+P30656); assay: Chymotryptic-like activity of purified yeast 20S core particle (Suc-Leu-Leu-Val-Tyr-AMC); type: biochemical
# T1 construct: various proteasome forms purified from yeast; made in house; host or cells: yeast
# Experimental: (§1) Proteasome activity was quantified by measuring the kinetics of fluorescence release (380 nm excitation, 460 nm emission). Fluorescence was measured at an interval of 30 seconds for 30 minutes with 5 seconds of mixing prior to each cycle. Proteasomes were purified as described previously, [35].
# (§2) After incubation for 15 minutes, enzyme activity was measured by monitoring the fluorescence kinetics for the next 30 minutes. […] Enzyme activity is expressed as percent control without inhibitor. Error bars show standard error of the mean; error bars smaller than symbol size are not visible.
# HEK293T cells = conditions: HEK293T cells; cited from earlier work
# 26S proteasome = 26S proteasome (Saccharomyces cerevisiae, UniProt P23724+P30656); assay: Chymotryptic-like activity of purified yeast 26S proteasome (Suc-Leu-Leu-Val-Tyr-AMC); type: biochemical; conditions: in the presence of ATP
# Experimental: as §1, §2
# [2] = molecular target: T2, recombinant human puromycin-sensitive aminopeptidase (PSAP, rhNPEPPS) (Homo sapiens, UniProt P55786); assay: Cleavage of Leu-AMC and Ala-AMC by purified recombinant PSAP; type: biochemical; conditions: 10 µM inhibitor, Ala-AMC
# T2 construct: purchased R&D Systems
# Experimental: To measure the effect of inhibitors on cleavage of Leu-AMC and Ala-AMC by purified PSAP, recombinant human PSAP (rhNPEPPS, R&D Systems) was diluted 1∶2000 in Buffer 2 containing 0.1 mg/ml BSA. The enzyme was pre-incubated with the inhibitor and Buffers 1 or 2, followed by addition of 100 µM final concentration of Leu-AMC (to the mix containing Buffer 1) and Ala-AMC (to the mix containing Buffer 2). After incubation at 37°C for 1 hour, PSAP activity was quantified by fluorescence measurement of the substrate (380 nm excitation, 460 nm emission).
# (§3) Figure 7 Effect of aminopeptidase inhibitors on Ala-AMC and Leu-AMC cleavage. HEK 293T cell extract (panels A–D) or recombinant PSAP (panels E–F) were treated with increasing concentrations of bestatin or puromycin for 30 minutes followed by the addition of substrate and incubation for 1 hour. Enzyme activity was determined by fluorescence measurement of AMC and expressed as percentage enzyme activity relative to the control without inhibitor. (A) Bestatin inhibition of HEK293T cell extract assayed with Ala-AMC. (B) Bestatin inhibition of HEK293T cell extract assayed with Leu-AMC. (C) Puromycin inhibition of HEK293T cell extract assayed with Ala-AMC. (D) Puromycin inhibition of HEK293T cell extract assayed with Leu-AMC. (E) Puromycin inhibition of purified PSAP assayed with Ala-AMC. (F) Puromycin inhibition of purified PSAP assayed with Leu-AMC. Error bars show standard error of mean (n = 4), points without error bars had error ranges smaller than the symbol size. Statistical analysis was performed using Student’s t-test: *, p≤0.05; **, p≤0.01; ***, p≤0.001; ns, no significant difference (p>0.05) versus the control.
# (§4) Figure 8 Effect of proteasome inhibitors on Ala-AMC and Leu-AMC cleavage. HEK 293T cell extract or recombinant PSAP was treated with 10 µM of each of the proteasome inhibitors for 1 hour in addition to a 30 min pre-incubation without the substrate. Enzyme activity was determined by fluorescence measurement of AMC and expressed as percentage enzyme activity relative to the control without inhibitor. Panels A and B represent the effect of proteasome inhibitors on cleavage of Ala-AMC and Leu-AMC respectively, in HEK293T cell extract. […] Error bars show standard error of mean (n = 4). Statistical analysis was performed using Student’s t-test: *, p≤0.05; **, p≤0.01; ***, p≤0.001; ns, no significant difference (p>0.05) versus the control.
# [3] = tested on: tripeptidyl peptidase 2 (TPP2); assay: Ala-Ala-Phe-AMC cleavage (TPP2 substrate) in HEK293T cell extracts; type: biochemical, human; conditions: HEK293T cell extract, up to 5 µM
# Experimental: (§5) All enzyme assays described below were performed in the linear range of the assay, as determined from time-course studies. HEK293T cells were lysed by sonication in 50 mM TrisHCl buffer, pH 7.5, containing 40 mM KCl, 5 mM MgCl2, 0.5 mM ATP, and 1 mM DTT (Buffer 1).
# (§6) To measure TPP2, the fluorescent substrate was Ala-Ala-Phe-AMC. Aminopeptidase (AP) assays were performed with Leu-AMC and Ala-AMC, which detect leucine aminopeptidase (LAP), puromycin-sensitive aminopeptidase (PSAP), and other enzymes. To measure the effect of aminopeptidase/proteasome inhibitors on cleavage of Ala-Ala-Phe-AMC and Leu-AMC, 1∶50 dilution of the cell extract was pre-incubated with the inhibitor and Buffer 1 for 30 min, followed by addition of 100 µM final concentration of the respective substrate. For Ala-AMC, the same dilution of the cell extract was pre-incubated with the inhibitor and 50 mM MOPS buffer, pH 7.5, containing 40 mM KCl, 5 mM MgCl2, 0.5 mM ATP, and 1 mM DTT (Buffer 2), followed by addition of 100 µM final concentration of the substrate. After incubation at 37°C for 1 hour, enzyme activity was quantified by fluorescence measurement of the substrate (380 nm excitation, 460 nm emission).
# Enzyme activity was determined by fluorescence measurement of AMC and expressed as percentage enzyme activity relative to the control lacking inhibitor. […]
# [4] = molecular target: T3, Blm10-activated 20S core particle (Saccharomyces cerevisiae, UniProt P23724+P30656); assay: Chymotryptic-like activity of purified yeast Blm10-20S (Suc-Leu-Leu-Val-Tyr-AMC); type: biochemical; conditions: in the absence of ATP
# T3 construct: various proteasome forms purified from yeast; made in house; host or cells: yeast
# Experimental: as §1, §2
# [5] = tested on: open gate mutant of the 20S core particle; assay: Chymotryptic-like activity of open gate mutant of yeast 20S (Suc-Leu-Leu-Val-Tyr-AMC); type: biochemical; conditions: in the absence of ATP
# Experimental: as §1, §2
# [6] = tested on: HEK293T cell aminopeptidase activity (Ala-AMC cleavage); assay: Aminopeptidase assay with Ala-AMC in HEK293T cell extracts; type: biochemical, human; conditions: HEK293T cell extract; for Enzyme activity (% control with no inhibitor): Ala-AMC
# Experimental: as §5, §6, §3, §4
# [7] = tested on: HEK293T cell aminopeptidase activity (Leu-AMC cleavage); assay: Aminopeptidase assay with Leu-AMC in HEK293T cell extracts; type: biochemical, human; conditions: HEK293T cell extract, 10 µM inhibitor
# Experimental: as §5, §6, §3, §4
# SH-SY5Y cells = conditions: cited from earlier work
# T2 sequence (P55786 whole entry): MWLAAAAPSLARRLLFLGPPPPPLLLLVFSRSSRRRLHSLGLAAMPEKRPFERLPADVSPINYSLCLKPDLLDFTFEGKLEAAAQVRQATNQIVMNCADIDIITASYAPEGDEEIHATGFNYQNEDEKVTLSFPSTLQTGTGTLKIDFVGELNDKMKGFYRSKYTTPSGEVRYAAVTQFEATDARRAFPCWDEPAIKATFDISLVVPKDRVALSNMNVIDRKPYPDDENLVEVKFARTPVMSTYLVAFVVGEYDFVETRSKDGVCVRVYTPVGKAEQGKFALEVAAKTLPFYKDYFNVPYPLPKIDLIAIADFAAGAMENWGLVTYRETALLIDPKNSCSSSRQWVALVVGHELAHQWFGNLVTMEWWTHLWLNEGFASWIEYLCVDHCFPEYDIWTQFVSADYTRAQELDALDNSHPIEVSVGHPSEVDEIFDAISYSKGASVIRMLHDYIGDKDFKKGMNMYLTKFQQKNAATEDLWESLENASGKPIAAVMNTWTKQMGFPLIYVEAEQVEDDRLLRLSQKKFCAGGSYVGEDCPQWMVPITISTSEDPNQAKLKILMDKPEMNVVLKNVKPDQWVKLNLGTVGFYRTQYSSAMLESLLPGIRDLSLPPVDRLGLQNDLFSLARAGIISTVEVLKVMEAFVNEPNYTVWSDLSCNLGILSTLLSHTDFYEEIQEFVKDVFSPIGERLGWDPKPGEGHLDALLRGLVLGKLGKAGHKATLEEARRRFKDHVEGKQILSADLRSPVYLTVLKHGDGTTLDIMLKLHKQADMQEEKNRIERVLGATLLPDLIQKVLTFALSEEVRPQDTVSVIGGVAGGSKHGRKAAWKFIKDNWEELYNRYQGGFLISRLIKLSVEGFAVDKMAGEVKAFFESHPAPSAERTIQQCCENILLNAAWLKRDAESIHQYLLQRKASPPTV
smiles,measurement,setting,value
CC(C)C[C@H](NC(=O)[C@H](Cc1ccccc1)NC(=O)c1cnccn1)B(O)O [bortezomib],"inhibition of chymotryptic-like activity, compared among 20S forms",[1]; in the absence of ATP,comparable potency
same,"inhibition of chymotryptic-like activity, 20S compared with 26S",[1]; in the presence of ATP,comparable inhibition
same,change in levels of intracellular peptides (peptidome),HEK293T cells,increase in the levels of most intracellular peptides
same,"inhibition of chymotryptic-like activity, 26S compared with 20S",26S proteasome,comparable inhibition
same,effect on cleavage of Ala-AMC by purified PSAP,[2],no significant effect
same,inhibition of Ala-Ala-Phe-AMC cleavage,[3],did not show significant inhibition
same,"inhibition of chymotryptic-like activity, compared among 20S forms",[4],comparable potency
same,"inhibition of chymotryptic-like activity, compared among 20S forms",[5],comparable potency
same,effect on cleavage of Ala-AMC,[6]; 10 µM inhibitor,partially inhibited
same,Enzyme activity (% control with no inhibitor),[6]; bestatin 50 µM together with bortezomib 10 µM,14.8±0.6 % control with no inhibitor
same,Enzyme activity (% control with no inhibitor),[6]; bestatin 50 µM together with bortezomib 50 µM,14.8±0.8 % control with no inhibitor
same,effect on cleavage of Leu-AMC,[7],partially inhibited
same,change in levels of intracellular peptides (peptidome),SH-SY5Y cells,increase in the levels of most intracellular peptides
